What all share (experiment): NCI tumour cell line growth inhibition, 48 h
The test system of experiment [1] is CCRF-CEM leukemia.
Experiment [2] concerns OVCAR-5 ovarian.
For experiment [3], the system named is HCT-15 colon.
For experiment [4], the system named is 786-0 renal.
Experiment [5] relates to MCF7 breast.
In experiment [6] the test system is LOX IMVI melanoma.
Experiment [7] has as its system HCC-2998 colon.
Experiment [8] concerns A498 renal.
The subject of experiment [9] is SF-539 CNS.
The test system of experiment [10] is OVCAR-4 ovarian.
Experiment [11] concerns UO-31 renal.
Experiment [12] concerns A549 NSCLC.
For experiment [13], the system named is HL-60(TB) leukemia.
Experiment [14] concerns M14 melanoma.
Experiment [15] relates to IGROV1 ovarian.
In experiment [16] the test system is UACC-62 melanoma.
In experiment [17] the test system is T-47D breast.

The structures appear in SMILES notation.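 All cell lines were grown in 96-well plates and treated with compound for 48 hours. Definition used: TGI = concentration required for complete inhibition of growth.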

As to `Nc1nc(Cl)c(/C=N\O)c(NCC2(CO)CCC2)n1`, the TGI in experiment [1], in [2], in [3], in experiment [4], in experiment [5] and in [6] was over 100 µM throughout. Also, the TGI in [7], in experiment [8], in [9], in experiment [10], in [11] and in [12] was over 100 µM in each case.
For the compound `Nc1c2ccccc2nc2ccc3c(=O)cc(-c4ccccc4)oc3c12`, the TGI in experiment [2] amounted to 2.85 µM; in [3], 4.3 µM; in [4] it was 0.348 µM; in [13], 3.07 µM; in [5], 2.05 µM; in experiment [7], 1.9 µM. For the same compound, the TGI in experiment [9] worked out at 2.34 µM; in [10] it was 1.1 µM; in experiment [11], 2.86 µM; in experiment [14] it was 2.67 µM.
On to `O=S(=O)(c1ccccc1)C(c1ccc2ccccc2n1)S(=O)(=O)c1ccccc1`, for which the TGI in [2], in experiment [15], in [3], in experiment [4], in experiment [13] and in experiment [5] was over 100 µM in each case. In addition, the TGI in experiment [6], in experiment [7], in [8], in experiment [9], in [10] and in experiment [11] was over 100 µM in each case. The compound further displayed a TGI in experiment [12] of over 100 µM.
`C=CCN1C(=O)/C(=C\c2cc(C(C)(C)C)c(O)c(C(C)(C)C)c2)NC1=S`: the TGI in [1] is 20.4 µM; in experiment [2] it was over 100 µM; in experiment [15] it was over 100 µM; in experiment [3], over 100 µM; in experiment [4], 55.7 µM; in experiment [13] it was 25.1 µM. In addition, the TGI in experiment [5] was 90.5 µM; in [6], 31.6 µM; in experiment [8], 90.8 µM; in experiment [16], 33.1 µM; in [9], over 100 µM; in experiment [10], over 100 µM. Also, the TGI was over 100 µM in experiment [11], 75.4 µM in experiment [14] and over 100 µM in [12].
`Nn1c(CCCCCCCCc2nnc(COc3ccc4ccccc4c3O)n2N)nnc1COc1ccc2ccccc2c1O`: the TGI is 37 µM in experiment [2]; 38.3 µM in experiment [15]; over 100 µM in experiment [3]; over 100 µM in experiment [4]; over 100 µM in experiment [5]; 67.7 µM in experiment [7]. Moreover, the TGI in experiment [8] was over 100 µM; in experiment [16] it was over 100 µM; in experiment [10], over 100 µM; in [11] it was over 100 µM; in experiment [14] it was 78.4 µM; in [12], over 100 µM.
`COc1c(OC(C)C)c(OC(C)C)c2oc(=O)n3c2c1C(c1ccccc1-n1c(C)ccc1C)C=C3` (stereo not given): the TGI in experiment [1], in [2], in experiment [15], in [3], in experiment [4] and in experiment [13] was over 100 µM in each case. The TGI in [5] was over 100 µM; in experiment [6] it was 59 µM; in experiment [7], over 100 µM; in [8] it was over 100 µM; in experiment [16], over 100 µM; in experiment [9], over 100 µM. In addition, the TGI in experiment [10], in experiment [11], in [14] and in experiment [12] was over 100 µM each time.
In the case of `CCCSc1ccc2[nH]c(/N=C/c3ccccc3)cc2c1`, the TGI was 64.4 µM in experiment [1]; over 100 µM in experiment [2]; over 100 µM in [15]; over 100 µM in experiment [3]; over 100 µM in experiment [17]; 40.1 µM in experiment [4]. Further, the TGI was 32.5 µM in [6]; 60.1 µM in experiment [8]; 35 µM in experiment [16]; 46.3 µM in [9]; 88.2 µM in experiment [10]; over 100 µM in experiment [11]. The same compound had a TGI in [14] of over 100 µM.
For `CCOC(=O)N1c2c(ccn2C)-c2ccn(C)c2N1C(=O)OCC`, the TGI is 13.8 µM in experiment [1]; 35.5 µM in experiment [2]; 52.4 µM in experiment [15]; 26.5 µM in [3]; 23.1 µM in experiment [4]; 26.7 µM in experiment [13]. The TGI is 25.6 µM in experiment [6]; 37.9 µM in experiment [7]; over 100 µM in experiment [8]; 31.3 µM in [16]; 38.2 µM in experiment [9]; 35.4 µM in experiment [11]. Besides, the TGI turned out to be 30.8 µM in experiment [14] and 39.4 µM in experiment [12].
For `CCO/C=N\c1c(C#N)c(-c2ccc(Cl)cc2)cn1-c1ccc(C)cc1`, the TGI in experiment [1], in experiment [2], in experiment [15], in experiment [3], in [4] and in experiment [13] was over 100 µM throughout. Besides, the TGI in experiment [5], in [6], in [7], in experiment [8], in [16] and in [9] was over 100 µM in each case. Further, the TGI in experiment [10], in experiment [11], in [14] and in experiment [12] was over 100 µM each time.
For `CC(=O)NC1=C(NC(C)(C)C)C(=O)c2ccccc2C1=O`, the TGI is 9.28 µM in experiment [1]; over 100 µM in [2]; 70.4 µM in experiment [15]; 34.5 µM in experiment [3]; 11.6 µM in experiment [4]; 5.6 µM in experiment [13]. Also, the TGI in [6] is 30.8 µM; in [7] it was over 100 µM; in experiment [8], 50.2 µM; in experiment [16], 27.3 µM; in experiment [9], 33.3 µM; in experiment [10] it was 36.6 µM. Moreover, the TGI was 32.9 µM in [11], 31.1 µM in [14] and over 100 µM in [12].
With `O=C(O)C1CCCCC1C(=O)Nn1cnnc1` (stereo not given), the TGI in [1], in experiment [2], in [15], in experiment [3], in experiment [4] and in [5] was over 100 µM in each case. The TGI in experiment [6], in experiment [7], in experiment [16], in [9], in [10] and in experiment [11] was over 100 µM in each case. The TGI in experiment [14] and in experiment [12] was over 100 µM throughout.
As for `Cc1ccc(/C(O)=C/c2nc3c(nc2NC24CC5CC(CC(C5)C2)C4)c(=O)oc2ccccc23)cc1`, the TGI in experiment [1], in experiment [2], in [15], in [3], in experiment [4] and in experiment [13] was over 100 µM throughout. In addition, the TGI in experiment [6], in [7], in experiment [16], in experiment [9], in experiment [11] and in experiment [14] was over 100 µM in each case. For the same compound, the TGI in [12] is over 100 µM.
For `O=C1[C@H]2ON(c3ccccc3)C(c3ccccc3)[C@H]2C(=O)N1c1ccc(Cc2ccc(N3C(=O)[C@@H]4ON(c5ccccc5)C(c5ccccc5)[C@@H]4C3=O)cc2)cc1` (stereo not given in full), the TGI in [1], in experiment [2], in experiment [15], in experiment [3], in [4] and in experiment [13] was over 100 µM in each case. The TGI in experiment [6], in experiment [7], in experiment [8], in [16], in experiment [9] and in experiment [10] was over 100 µM each time. Further, the TGI in experiment [11], in [14] and in experiment [12] was over 100 µM each time.
As for `O=C1Cc2c([nH]c3ccccc23)-c2ccccc2N1`, the TGI in [1] is over 100 µM; in experiment [2] it was 67.4 µM; in experiment [15], 70.8 µM; in [3] it was over 100 µM; in [4], over 100 µM; in [13], over 100 µM. Besides, the TGI in experiment [6] is 37.7 µM; in experiment [7] it was 41.2 µM; in experiment [8], over 100 µM; in [9], 55.2 µM; in [10], over 100 µM; in experiment [11], over 100 µM. Moreover, the TGI in experiment [14] and in [12] was over 100 µM throughout.
Regarding `CCOC(=O)/C(=C\c1ccc(N(CCC#N)CCC#N)cc1)NC(=O)c1cc([N+](=O)[O-])ccc1Cl`, the TGI in experiment [1], in experiment [2], in experiment [15], in [3], in experiment [4] and in [13] was over 100 µM in each case. Also, the TGI in experiment [6], in [7], in [8], in [16], in experiment [9] and in experiment [10] was over 100 µM throughout. Besides, the TGI in experiment [11], in [14] and in [12] was over 100 µM in each case.
For `CC(=O)OC[C@]1(C)CCCC2(C)C1CCC1C=C(C)[C@H]3CCC12C3` (stereo not given in full), the TGI in [1], in [2], in experiment [15], in experiment [3], in [4] and in experiment [13] was over 100 µM each time. Further, the TGI in [6] is over 100 µM; in experiment [7], over 100 µM; in experiment [16], over 100 µM; in experiment [9], 66.8 µM; in experiment [10], over 100 µM; in [11], over 100 µM. For the same compound, the TGI in experiment [14] and in experiment [12] was over 100 µM each time.
With `Cc1nc(C(N)=S)sc1C(=O)CC(=O)C(=O)Nc1ccccc1[N+](=O)[O-]`, the TGI in experiment [1], in experiment [2], in experiment [15], in experiment [3], in experiment [4] and in experiment [13] was over 100 µM each time. Also, the TGI in experiment [6], in [7], in experiment [8], in [16], in experiment [9] and in [10] was over 100 µM in each case. The TGI in [11], in experiment [14] and in [12] was over 100 µM throughout.
Take `C/C=C1\C=C(OC)CN(CCc2c[nH]c3ccccc23)C1`: the TGI in [1], in [15], in experiment [3], in experiment [4], in [13] and in experiment [6] was over 100 µM each time. For the same compound, the TGI is 33.1 µM in experiment [7]; over 100 µM in experiment [8]; over 100 µM in experiment [16]; over 100 µM in experiment [9]; over 100 µM in experiment [10]; over 100 µM in experiment [11]. For the same compound, the TGI in experiment [14] was 95.6 µM; in experiment [12] it was over 100 µM.
Take `Cc1ccccc1NC(=O)c1c(C)oc2c1C(=O)c1ccccc1C2=O`: the TGI was 48.1 µM in experiment [1]; over 100 µM in experiment [2]; over 100 µM in experiment [15]; over 74.8 µM in [3]; over 100 µM in experiment [4]; 56.9 µM in experiment [13]. For the same compound, the TGI is 41.3 µM in experiment [6]; over 100 µM in experiment [7]; over 100 µM in experiment [8]; 49.8 µM in experiment [16]; over 68.5 µM in experiment [9]; over 100 µM in experiment [10]. Moreover, the TGI in experiment [11] was over 100 µM; in [14], over 69.9 µM; in experiment [12], over 96.1 µM.
